Values of other authors in US8617906B2, “Identification and screening of triptolide target molecules” (priority 2004, dated 2013).

Key:
[1] = cited from earlier work
[2] = tested on: dopaminergic neurons; details: cited from earlier work
[3] = 0.5-1 μg/kg; cited from earlier work
[4] = in vivo; cited from earlier work
[5] = target: Thioredoxin reductase (Homo sapiens, UniProt Q16881); details: cited from earlier work
[6] = tested on: IL-2; details: cited from earlier work
[7] = tested on: human T cell lymphoma (Jurkat) cells; details: cited from earlier work
[8] = tested on: Akt/PKB; details: cited from earlier work
[9] = tested on: AML cells; details: cited from earlier work

Thioredoxin reductase, sequence (Q16881 151-649 limits assumed): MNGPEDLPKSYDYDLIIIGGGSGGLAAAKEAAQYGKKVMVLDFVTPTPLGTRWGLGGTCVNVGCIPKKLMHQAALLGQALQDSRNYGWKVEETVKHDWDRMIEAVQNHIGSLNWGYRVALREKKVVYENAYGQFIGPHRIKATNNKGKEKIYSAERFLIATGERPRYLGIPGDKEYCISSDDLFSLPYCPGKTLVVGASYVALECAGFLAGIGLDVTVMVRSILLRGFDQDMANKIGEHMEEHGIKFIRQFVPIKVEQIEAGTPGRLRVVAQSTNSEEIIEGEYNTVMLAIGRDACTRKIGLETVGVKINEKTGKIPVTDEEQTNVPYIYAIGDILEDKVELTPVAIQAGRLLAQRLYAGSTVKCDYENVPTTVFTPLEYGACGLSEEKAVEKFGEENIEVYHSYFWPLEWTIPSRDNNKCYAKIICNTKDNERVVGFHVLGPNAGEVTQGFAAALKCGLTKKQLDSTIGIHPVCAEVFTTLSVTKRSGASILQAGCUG

CC(C)[C@]12O[C@H]1[C@@H]1O[C@]13[C@]1(O[C@H]1C[C@H]1C4=C(CC[C@@]13C)C(=O)OC4)[C@@H]2OC(=O)CCC(=O)[O-].[Na+] [PG490-88]
conversion in vivo to triptolide [1]: converting in vivo to triptolide

CC(C)[C@]1(O)[C@H](Cl)[C@@H]2O[C@]23[C@]2(O[C@H]2C[C@H]2C4=C(CC[C@@]23C)C(=O)OC4)[C@@H]1O [Tripchlorolide]
dopaminergic neuron axonal elongation [2]: promotes dopaminergic neuron axonal elongation
protection from neurotoxic lesion induced by 1-methyl-4-phenylpyridinium ion [2]: protects dopaminergic neurons from a neurotoxic lesion
brain-derived neurotrophic factor mRNA expression ([2]; in situ hybridization): stimulates brain-derived neurotrophic factor mRNA expression
TNF-α and IL-2 levels in the brain [3]: attenuates the elevation of TNF-α and IL-2 levels in the brain
dopamine depletion [3]: attenuates dopamine depletion
recovery of rats undergoing neurosurgery [3]: improves recovery of rats undergoing neurosurgery
sparing of SN neurons [3]: significant sparing of SN neurons
survival of dopaminergic neurons [3]: increases the survival of dopaminergic neurons
conversion in vivo to triptolide [1]: prodrug of triptolide

14-succinimide ester of triptolide
bleomycin-induced PF [4]: block bleomycin-induced PF

CC(=O)OC[C@H]1O[C@@H]([S-])[C@H](OC(C)=O)[C@@H](OC(C)=O)[C@@H]1OC(C)=O.CCP(CC)CC.[Au+] [auranofin]
thioredoxin reductase as drug target [5]: target of auranofin

CC(C)[C@]12O[C@H]1[C@@H]1O[C@]13[C@]1(O[C@H]1C[C@H]1C4=C(CC[C@@]13C)C(=O)OC4)[C@H]2F [PG763, 14-deoxy-14α-fluoro triptolide]
inhibition of IL-2 [6]: inhibition of IL-2
cytotoxicity [7]: cytotoxicity in human T cell lymphoma (Jurkat) cells

Cc1cc(C)c(/C=C2\C(=O)Nc3ccccc32)[nH]1 [SU-5416]
VEGF-stimulated phosphorylation of Akt/PKB [8]: abolished
VEGF-induced colony formation / clonogenic response [9]: abolished
